Values quoted from earlier work, collected in patent publication US20250002910A1, “TREATMENT OF COMPLEMENT-MEDIATED DISORDERS” (Apellis Pharmaceuticals, Inc., priority 2021, published 2025).

test system: complement activation; conditions: relative to compstatin amidated at the C-terminus; published data

Point of comparison: “Ac-ICV(2-Nal)QDWGAHRCT-CONH2 [Ac-V4(2-Nal)/H9A]”, Activity over compstatin 99x more. Against it:
- Ac-ICVYQDWGAHRCT-CONH2 [Ac-V4Y/H9A] — lower, 14x more
- Ac-ICV(Bpa)QDWGAHRCT-COOH [Ac-V4(Bpa)/H9A-OH] — lower, 49x more
- Ac-ICV(Bpa)QDWGAHRCT-CONH2 [Ac-V4(Bpa)/H9A] — lower, 86x more
- Ac-ICVDhtQDWGAHRCT-COOH [Ac-V4Dht/H9A-OH] — lower, 5x more
- H-GICV(6fW)QD(6fW)GAHRCTN-COOH [+G/V4(6fW)/W7(6fW)H9A+N-OH] — higher, 126x more
- Ac-ICVWQDWGAHRCT-CONH2 (Ac-ICVWQDWGAHRCT-NH2; not fully specified (bridges); printed as Ac-ICVWQDWGAHRCT-CONH2; cysteine pairing not given here) [Ac-V4W/H9A] — lower, 45x more
- Ac-ICVWQD(5fW)GAHRCT-CONH2 [Ac-V4W/W7(5fW)/H9A] — higher, 121x more
- Ac-ICVWQDWGAHRCdT-COOH [Ac-V4W/H9A/T13dT-OH] — lower, 55x more
- Ac-ICV(2-Nal)QDWGAHRCT-COOH [AcV4(2-Nal)/H9A-OH] — lower, 38x more
- Ac-ICVVQDWGHHRCT-CONH2 [Ac-compstatin] — lower, 3x more
- Ac-ICV(1-Nal)QDWGAHRCT-COOH [AcV4(1-Nal)/H9A-OH] — lower, 30x more
- Ac-ICV(2-IgI)QDWGAHRCT-COOH [Ac-V42lgl/H9A-OH] — lower, 37x more
- Ac-ICV(2-IgI)QDWGAHRCT-CONH2 [Ac-V42lgl/H9A] — lower, 39x more
